According to patent US20230313181A1, “HISTIDINE-LYSINE POLYMERS AND METHODS FOR DELIVERING MRNA USING THE SAME” (UNIVERSITY OF MARYLAND, BALTIMORE, priority 2019, published 2023):
Bridges are numbered along the chain shown (N, C = ends). Roman numbers before positions name the chains, in order. Where no end group is shown, it is not given here.

Legend:
mRNA = assay: Heparin displacement assays (gel electrophoresis and Sybr Gold dye intercalation); type: physicochemical; settings: HK:mRNA 4:1 wt/wt
Experimental: FIG. 4. Heparin Displacement Assays. After HK polyplexes were formed (wt:wt; HK:mRNA; 4 μg:1 μg), different concentrations of heparin […] were incubated with these for 30 min. A. Gel Retardation. The HK polyplexes were loaded on the agarose gel (1%), and electrophoresis was carried out and stained with Sybr Gold. B. Fluorescent dye intercalation. After the HK polyplexes were formed and incubated with several concentrations of heparin, the Sybr Gold nucleic acid dye was incubated with the HK polyplexes for 5 mins. Fluorescence was then measured by a microplate fluorimeter (λex=497 nm, λem=520 nm) (SynergyMx, BioTek). *, P<0.05; ***, P<0.001; H3K4b or H2K vs. H3K(+H)4b.
Heparin Displacement Assays. Heparin displacement assays of HK polyplexes were done with the dye intercalation assay and with gel electrophoresis. A fluorescent assay assessed polyplexes of HK polymer and mRNA (4:1 wt/wt ratio; polymer:mRNA) formed in RNAse/DNAase free water (Corning, Manassas, VA). HK polyplexes were prepared as described previously, followed by the addition of diluted Syber Gold. For detection, working dilutions of the polyplexes (1/5 of volume), water (3/5) and Sybr Gold dye (1/5, 0.2×) were incubated for 5 minutes, and fluorescence was measured by a fluorimeter (Ex=497 nm, Em=520 nm) (SynergyMx, BioTek, Winooski, VT). The control sample was prepared with the same amount of mRNA, water, and Sybr Gold dye. For the heparin displacement, instead of water, heparin salt (Sigma-Aldrich, St. Louis, MO) solutions at different concentrations (0.5, 1, 1.5, 2, 3 μg/μl) were used, and the HK polyplexes were incubated at 37° C. for 30 min before addition of Sybr Gold.
Displacement of mRNA from HK polyplexes with heparin was also done with gel electrophoresis. After HK polyplexes were formed, different concentrations of heparin (0.5, 1.0, 1.5, 2.0, 3.0 μg/μl; volume 20 μl) were incubated with these at 37° C. for 30 min. The polyplexes were then loaded on the agarose gel (1%; 10× BlueJuice Gel loading buffer), and electrophoresis was carried out and stained with SG as described above. […]

[1] = Acid-base titration of HK polymer solutions; type: physicochemical; settings: pH titration curves, 5 mg/ml
Experimental: FIG. 2. Titration of different HK peptide solutions. Solutions of polymers (5 mg/ml) (H2K4b, H3K4b, H3K(+H)4b, and H4K4b) were adjusted to pH 3 (initial volume—1 ml) and then […] aliquots of 0.05 N NaOH were stepwise added and the pH measured.
Acid-Base Titration. After polymer solutions (e.g. containing one or more of H2K4b, H3K4b, H3K(+H)4b, and H4K4b) were adjusted to pH 3.0 (5 mg/mil; initial volume—1 mil), aliquots (5 μl) of NaOH (0.05 N) were stepwise added with the pH measured (FiveEasy™ meter; InLab Solids Pro-ISM pH electrode, Mettler Toledo, Columbus, OH). Titration was stopped at about pH 9.0.

MDA-MB-231 cells = assay: In vitro mRNA transfection with HK polyplexes (luciferase mRNA, luciferase activity); type: cell-based; settings: mRNA 1 μg, 24 h
Experimental: FIG. 1. Comparison of H3K(+H)4b and H3K4b peptides as carriers of mRNA. To form the HK polyplexes, the mRNA (1 μg) was mixed with 3 different ratios of the HK ([…]) polymer for 30 minutes. The HK polyplexes were then added to the cells for 24 h before the luciferase activity was measured. ****, H3K(+H)4b vs H3K4b, P<0.0001.
In vitro mRNA Transfection. Several HK polymers were examined for their ability to carry a luciferase-expressing mRNA (CleanCap Firefly Luciferase mRNA, Trilink Biotechnologies, Inc, San Diego, CA) into MDA-MB-231 cells (America Type Tissue Culture, Manassas, VA). In brief, 3×10^4 cells were plated into a 24-well plate containing 500 μl of DMEM and 10% fetal bovine serum (ThermoFisher Scientific, Waltham, MA). After 24 h, when the cells were 60 to 80% confluent, the media in each well was changed to Opti-MEM (ThermoFisher Scientific). To prepare HK polyplexes, mRNA (1 μg) in 50 μl of Opti-MEM was briefly mixed well with one of the HK polymers (4 to 12 μg) and maintained at room temperature for 30 min. This polyplex was then added dropwise to the cells. After four h, the Opti-MEM media was removed and replaced with 0.5 ml of DMEM/10% serum (0.5 ml). Twenty-four hours later, the cells were lysed, and the luciferase activity (Promega Corporation, Madison, WI) was measured.
To obtain the data in Table 4, luciferase-expressing mRNA (1 μg) in 50 μl of Opti-MEM was briefly mixed with one of the HK polymers (4, 8, or 12 μg) and maintained at room temperature for 30 min. The resulting polyplexes were added dropwise to the MDA-NM-231 cells and after four h, the Opti-MEM media was removed and replaced with DMEM/10% serum. Twenty-four hours later, the cells were lysed, and the luciferase activity was measured

cytokines = settings: in vitro and in vivo; prior study [45]; cited from earlier work
[2] = Cell viability assay (trypan blue exclusion); type: cell-based; settings: human, MDA-MB-231 cells, HK polymer 4 μg or polyplex (4 μg HK; 1 μg mRNA), then 19 h DMEM/10% FBS
Experimental: Cell Viability Assay. MDA-MB-231 cells were seeded at 5.0×10^4/well in a 24-tissue culture plate and incubated overnight in DMEM supplemented with 10% FBS serum. The media was then changed to Opti-MEM and the cells were treated with either the HK polymer (4 μg) or the HK polyplex (4 μg HK; 1 μg mRNA) for 5 h. After the media was changed to DMEM/10% FBS for 19 h, the cell viability was measured using the trypan blue cell exclusion assay (Trypan Blue solution, 0.4%, Sigma-Aldrich, St. Louis, MO).
After the medium was changed to Opti-MEM in cell cultures of the MDA-MB-231 cells used in the experiment described above, either the HK polymer (4 μg) or the HK polyplex (4 μg HK; 1 μg mRNA) was added dropwise to the cells and incubated for 5 h. The media was then changed to DMEM/10% FBS for 19 h and cell viability was determined using the trypan cell exclusion assay.

[3] = prior studies [34, 35, 45]; cited from earlier work
[4] = Particle size, polydispersity index (PDI) and zeta potential of polyplexes (Zetasizer); type: physicochemical
Experimental: Particle size, polydispersity index (PDI), and zeta potential. The size, PDI, and zeta potential were determined with the Zetasizer (Malvern, Westborough, Mass.) and analyzed with software provided by the instrument manufacturer (Zetasizer software, version 6.2). Using dynamic light scattering at a 90° angle, the size of the particles were reported as the Z-average diameter from the intensity-weighted size distribution. Prior to the measurements, the samples were equilibrated to 25° C. for 2 min. Each measurement had at least ten sub-runs under the automatic mode of the software. The particle size, PDI, and zeta potential data point represent the mean±SD of three measurements. After mixing HK peptides (4 μg) and mRNA (1 μg) in 100 μl of defined media (Opti-MEM, water, or DMEM/8% FBS) for 30 min, 100 μl of additional defined media was added to the polyplex solution (total volume 200 μl) to measure the size and PDI. To determine the zeta potential, 800 μl more of the media was added (total volume 1000 μl), mixed gently, and then added to the disposable zeta cell.
Because different stabilities were observed between the H3K4b and H3K(+H)4b polyplexes, whether the sizes of these polyplexes varied based on the media in which they were prepared was investigated. […] H3K(+H)4b and H3K4b peptides (4 μg) in complex with mRNA (1 μg) were mixed with either Opti-MEM, water, or DMEM/8% FBS […]. After 1 h, the size, PDI, and zeta potential were measured.

[5] = polyplex HK 4 μg:mRNA 1 μg in DMEM/8% FBS
[6] = polyplex HK 4 μg:mRNA 1 μg in Opti-MEM
[7] = polyplex HK 4 μg:mRNA 1 μg in Water

Question: Which “binding/release of mRNA and polyplex stability on exposure to heparin (in words)” value (mRNA) does the source give for “I: KHHHKHHHKHHHKHHHKKKK-NH2 / II: KHHHKHHHKHHHKHHHK / III: KHHHKHHHKHHHKHHHK / IV: KHHHKHHHKHHHKHHHK (amide I:18-IV:C, I:19-III:C, I:20-II:C) [H3K4b]” here?
Answer: released by the H3K4b polymer more readily than the H3K(+H)4b polymer

Question: What about the “buffering profile / buffering capacity (in words)” value [1] of the same substance?
Answer: minimal differences in their buffering profile

Question: What about the “RLU/μg-Protein (luciferase activity)” value (MDA-MB-231 cells; ratio mRNA:polymer 1:4 (wt:wt)) of the same substance?
Answer: 156.8 ± 41.8 RLU/μg-Protein

Question: What about the “RLU/μg-Protein (luciferase activity)” value (MDA-MB-231 cells; ratio mRNA:polymer 1:8 (wt:wt)) of the same substance?
Answer: 62.1 ± 13.2 RLU/μg-Protein

Question: And the “RLU/μg-Protein (luciferase activity)” value (MDA-MB-231 cells; ratio mRNA:polymer 1:12 (wt:wt))?
Answer: 18.1 ± 4.0 RLU/μg-Protein

Question: And the “cytokine induction by siRNA polyplex (in words)” value (cytokines)?
Answer: induced cytokines to a significantly greater degree

Question: What about the viability at 5 h [2] of the same substance?
Answer: 95.6%

Question: And the “carrier of siRNA (in words)” value [3]?
Answer: effective carriers of siRNA

Question: And the PDI [4, 5]?
Answer: 0.421

Question: What about the Size [4, 5] of the same substance?
Answer: 578 ± 80.5 nm

Question: What about the “Zeta Potential” value [4, 5] of the same substance?
Answer: −12.1 ± 2.22 mV

Question: What about the PDI [4, 6] of the same substance?
Answer: 0.466

Question: What about the Size [4, 6] of the same substance?
Answer: 2030.7 ± 117.3 nm

Question: What about the “Zeta Potential” value [4, 6] of the same substance?
Answer: −4.20 ± 2.78 mV

Question: What about the PDI [4, 7] of the same substance?
Answer: 0.171

Question: And the Size [4, 7]?
Answer: 199.9 ± 0.8 nm

Question: And the “Zeta Potential” value [4, 7]?
Answer: 16.47 ± 0.74 mV
